Source: US20250367171A1, “THERAPEUTIC OR PROPHYLACTIC AGENT FOR PERIPHERAL NEUROPATHIES” (Toray Industries, Inc., priority 2017, published 2025)

Assays:
[1] = tested on: rat experimental autoimmune neuritis (EAN) model; experiment: Mechanical allodynia (von Frey test) in rat EAN model; assay type: in vivo; conditions: day 14, 3 hours after administration, vs vehicle group
Experimental: EAN model rats were prepared in a manner similar to Example 9. Further, a pseudo-induction animal was prepared by administering physiological saline (Otsuka Pharmaceutical Factory, Inc.) instead of a peptide solution for administration. The day of administration of the peptide solution for administration or physiological saline was designated as day 0 after induction of pathological conditions.
On day 14 after induction of pathological conditions, compound 1 (5 or 10 mg/kg) or a solvent thereof (water for injection) was orally administered to rats. Groups were composed of 4 groups: a pseudo-induction and solvent administration group (sham group); a pathological condition-induced and solvent administration group (vehicle group); a pathological condition-induced and compound 1 (5 mg/kg) administration group (compound 1 (5 mg/kg) group); and a pathological condition-induced and compound 1 (10 mg/kg) administration group (compound 1 (10 mg/kg) administration group).
Beneficial effects on mechanical allodynia were evaluated in a manner similar to Example 5, and this evaluation was performed at 3 hours after administration of compound 1 on day 14 after induction of pathological conditions.

[2] = tested on: co-culture of rat dorsal root ganglion neurons and Schwann cells; experiment: Myelination in co-culture, MBP immunostaining, number of myelin sheath segments; assay type: cell-based; conditions: 30 μM with ascorbic acid treatment, vs vehicle treatment group
Experimental: The dorsal root ganglion was excised from a fetus of a female SD rat at 15 days of pregnancy, and then neurons and Schwann precursor cells thereof were separately cultured (the initial day of cell culture was designated as Day 1). On day 19 from the initial day of cell culture (Day19), Schwann precursor cells were added to the culture of neurons to initiate co-culture. Myelination was induced by treatment with ascorbic acid (a total of 4 to 5 times in accordance with 2 to 3 times of medium exchange) on the 26th to 40th days (Days 26 to 40) from the initial day of cell culture.
In combination with ascorbic acid treatment, treatment with compound 1 dissolved in sterile distilled water (final concentration of 30 μM) was performed 4 to 5 times in total. As a control, treatment with sterile distilled water instead of the compound 1 solution was performed. Groups were composed of 2 groups: a sterile distilled water treatment group (Vehicle treatment group); and a 30 μM compound 1 treatment group (compound 1 treatment group). […]
Fluorescent images of MBP were taken with a fluorescence microscope (DMI4000B, Leica), and then the number of myelin sheath segments (≥25 μm) was analyzed based on the images. […]

[3] = tested on: rat bortezomib-induced peripheral neuropathy model; experiment: Mechanical allodynia (von Frey test) in rat bortezomib-induced peripheral neuropathy model; assay type: in vivo; conditions: 20 mg/kg oral single dose, day 15, 3 hours after administration, vs vehicle group
Experimental: Bortezomib (0.2 mg/kg, AdooQ BioScience) was intraperitoneally administered 4 times in total to SD rats (6 weeks old, male; CHARLES RIVER LABORATORIES JAPAN, INC.) on days 1, 4, 8 and 11 after induction of pathological conditions, thereby preparing a bortezomib-induced peripheral neuropathy model. Here, the initial day of administration was designated as the 1st day (Day1) after induction of pathological conditions. Bortezomib was dissolved in dimethyl sulfoxide, and then Tween80 was added. Subsequently, water for injection was added to prepare a 0.2 mg/mL solution. The final concentration of dimethyl sulfoxide and that of Tween80 were each 5%.
On day 15 after induction of pathological conditions, a solution containing compound 1 (20 mg/kg) or a solvent thereof (water for injection) was orally administered to rats. Groups were composed of 2 groups: a solvent administration group (vehicle group) and a compound 1 (20 mg/kg) administration group.
Beneficial effects on mechanical allodynia were evaluated in a manner similar to Example 5, and this evaluation was performed before and on day 15 after induction of pathological conditions (3 hours after administration of compound 1).

[4] = tested on: fetal rat dorsal root ganglion-derived established neuronal cell line ND15; experiment: Repair effect on cisplatin-induced cell damage (cell viability), post-treatment; assay type: cell-based; conditions: ND15 cells, 24 hours cisplatin, then 2 hours post-treatment with compound 1 at 0.5, 5 or 50 μM
Experimental: A fetal rat dorsal root ganglion-derived established neuronal cell line ND15 was cultured in 10% FBS-containing DMEM. On the next day, the cells were cultured in 10% FBS-containing DMEM containing EC23 (10 μM, Reinner) for 8 days, for differentiation into neurons.
For measurement of cell viability, the medium was exchanged with DMEM/F12 medium containing alamarBlue (Invitrogen), followed by 2 hours of culture, and then the absorbance at wavelength of 570 nm and the absorbance at wavelength of 595 nm were measured. Cell viability was calculated using the ratio of the absorbance at wavelength of 570 nm to the absorbance at wavelength of 595 nm and the untreated group designated as 100%.
In a manner similar to Example 1, cell damage was induced to a fetal rat dorsal root ganglion-derived established neuronal cell line ND15 by the use of cisplatin, and then the cell viability was measured. After 24 hours of treatment with cisplatin, compound 1 was contained in a medium for 2 hours of treatment (final concentration of 0.5, 5 or 50 μM). Groups were composed of 6 groups: an untreated group; a 50 μM compound 1 treatment group; a cisplatin treatment group; a cisplatin and 0.5 μM compound 1 treatment group; a cisplatin and 5 μM compound 1 treatment group; and a cisplatin and 50 μM compound 1 treatment group.

Compound: CN(C)C1CCN(C(=O)C[C@H](O)c2nccn2C)CC1 [Compound 1, (S)-1-(4-(dimethylamino)piperidin-1-yl)-3-hydroxy-3-(1-methyl-1H-imidazol-2-yl)propan-1-one]
- 50% response threshold in von Frey test (mechanical allodynia) ([1]; 5 mg/kg oral single dose): Significant increases in 50% response threshold
- 50% response threshold in von Frey test (mechanical allodynia) ([1]; 10 mg/kg oral single dose): Significant increases in 50% response threshold
- number of myelin sheath segments [2]: Increased number of myelin sheath segments
- 50% response threshold in von Frey test (mechanical allodynia) [3]: significant increase in 50% response threshold
- cell viability (decrease caused by cisplatin) [4]: suppressed decrease
